From patent publication US20030166202A1, “P450 Monooxygenases of the cyp79 family” (priority 2000, published 2003)

What was measured:
[1] = system: CYP79E2; test: Substrate specificity / reconstitution of CYP79E2; type: biochemical, Triglochin maritima
Protocol: Investigations into the substrate specificity of CYP79D1, CYP79D2, CYP79E1, CYP79E2, CYP79A2, CYP79B2, CYP79B5 and CYP79F1 are carried out in E. coli spheroplasts reconstituted with sorghum NADPH-cytochrome P450 oxidoreductase in the presence of high amounts of lipids. L-α-dioleyl phosphatidyl choline and L-α-dilauroyl phosphatidyl choline are preferred lipids for the reconstitution. […] Neither L-methionine, L-tryptophane nor L-tyrosine are metabolized by CYP79A2. Neither phenylalanine nor tyrosine are metabolized by CYP79B2. Neither L-tryptophane, L-phenylalanine nor L-tyrosine are metabolized by CYP79F1. D-Amino acids are not converted into oximes by CYP79D1, CYP79D2, CYP79E1 and CYP79E2. Depending on the nature of the substrate, substrate specificity may also be determined using intact P. pastoris cells or intact E. coli cells.
Expression levels of the different constructs are determined by CO difference spectroscopy and quantified using an extinction coefficient ε450-490 of 91 mM^−1cm^−1 (Omura et al, J. Biol. Chem. 239: 2370-2378, 1964). Spectra are made from 100 μl or 500 μl whole E. coli cells or using the rich phases from Triton X-114 phase partitioning solubilized in 50 mM KH2PO4/K2HPO4 pH 7.5, 2 mM EDTA, 20% glycerol, 0.2% Triton X-100 (total volume: 1 ml). […] In vitro activities are measured in reconstitution experiments using the rich phase from phase partitioning. […]

[2] = target: T1, CYP79B2 (Arabidopsis thaliana, UniProt O81346); test: CYP79B2 activity in E. coli spheroplasts reconstituted with NADPH:cytochrome P450 reductase; conditions: radiolabelled amino acid, TLC
T1 sequence (O81346 1-541): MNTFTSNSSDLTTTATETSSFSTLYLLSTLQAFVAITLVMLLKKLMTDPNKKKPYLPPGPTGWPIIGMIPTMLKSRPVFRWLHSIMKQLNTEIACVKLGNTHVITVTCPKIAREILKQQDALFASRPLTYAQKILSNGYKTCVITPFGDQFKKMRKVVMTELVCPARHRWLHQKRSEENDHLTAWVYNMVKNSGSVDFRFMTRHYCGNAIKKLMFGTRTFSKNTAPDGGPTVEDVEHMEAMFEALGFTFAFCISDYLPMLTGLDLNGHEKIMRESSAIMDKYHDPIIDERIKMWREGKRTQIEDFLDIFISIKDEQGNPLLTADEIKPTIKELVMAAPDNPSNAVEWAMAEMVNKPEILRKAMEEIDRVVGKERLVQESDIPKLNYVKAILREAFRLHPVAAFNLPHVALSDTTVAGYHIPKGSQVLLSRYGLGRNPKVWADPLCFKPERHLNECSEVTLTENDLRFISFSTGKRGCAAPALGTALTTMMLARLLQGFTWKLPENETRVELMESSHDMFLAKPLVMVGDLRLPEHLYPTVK
Protocol: The activity of CYP79B2 is measured by reconstituting spheroplasts from E. coli expressing CYP79B2 with purified NADPH:cytochrome P450 reductase from Sorghum bicolor (L.) Moench. […] The reaction is incubated at 34° C. for 30 minutes, extracted two times with ethyl acetate and the ethyl acetate phase is analyzed by TLC using toluen:ethyl acetate 5:1 as eluent. Radiolabelled bands are visualized on a Storm 840 phosphorimager (Molecular Dynamics) and quantified with ImageQuant analysis software (Molecular Dynamics). Substrate specificity is investigated by substituting the ^14C-labelled tryptophan with ^14C-labelled tyrosine or phenylalanine. GC-MS is employed to verify the structure of the compound produced from tryptophan by recombinant CYP79B2. A 450 μl reaction mixture as described above containing 2 mM unlabelled tryptophan is incubated at 34° C. for 2 hours. The reaction mixture is extracted twice with 300 μl CHCl3 and lyophilized until dryness. GC-MS is performed with an HP5890 Series II gas chromatograph coupled to a Jeol JMS-AX505W mass spectrometer. Splitless injection on an SGE column (BPX5, 25 mm×0.25 mm, 0.25 μm film thickness) and a head pressure of 100 kPa are used.
Single colonies are grown overnight at 37° C. in LB medium containing 100 μg/ml ampicillin. 1 ml of the overnight culture is used to inoculate 75 ml TB medium containing 100 μg/ml ampicillin, 75 μg/ml δ-aminolevulinic acid, 1 mM thiamine and 1 mM IPTG. The TB cultures are grown for 44 hours at 125 rpm and 28° C.

N[C@@H](Cc1ccc(O)cc1)C(=O)O [L-tyrosine]
conversion to the corresponding oxime by CYP79E2 [1]: found to convert | product accumulation in reconstitution of CYP79E2 with CYP71E1 ([1]; with NADPH, NADPH-cytochrome P450 oxidoreductase, CYP71E1): considerable amounts of p-hydroxyphenylacetonitrile and p-hydroxybenzaidehyde accumulate | oxime production by CYP79B2 [2]: No oxime producing activity is detected
